pIC50: −log10 of the molar value. Like-named read-outs stand apart in the source and are kept apart here.
How the values were obtained:
[1] = SOD activity by the stopped flow method (potassium superoxide); assay type: biochemical; settings: HEPES buffer pH 8.1, 36° C.
Procedure: The SOD activity (i.e. ° 2-extinction activity) of Por-embedding niosome was evaluated according to the stopped flow method of Riley et al. (D. P. Riley, W. L. Rivers, and R. H. Weiss, Anal. Biochem., 196, 344 (1991)). A specific procedure was as follows: 60 mM HEPES/HEPES Na buffer solutions (8.1 pH) containing Por-embedding niosome at different concentrations were rapidly mixed with a dimethyl sulfoxide solution of potassium superoxide, which is an O2^−. generation source, at 36° C. to measure over time an attenuation of absorbance at 245 nm due to O2^−. (a decay curve of O2^−. extinction reaction). The relationship of ln (absorbance) and time was determined from the decay curve. The apparent rate constant was calculated from the inclination of the resulting relationship. The rate constant (kcat) of the O2^−. extinction reaction was then determined from the inclination of the relationship of the metalloporphyrin complex concentration and the apparent rate constant.

[2] = SOD activity by the cytochrome c method (xanthine/xanthine oxidase); assay type: biochemical; settings: pH 7.8, 25° C., metalloporphyrin concentration
Procedure: The SOD activity (i.e. O2— extinction activity) of Por-embedding niosome was evaluated according to the cytochrome c method ((1) J. M. Mccord and I. Fridovich, J. Biol. Chem., 244, 6049 (1969) and (2) J. Butler, W. H. Kopenol, E. Margoliash, J. Biol. Chem., 257, 10747 (1982)). A specific procedure was as follows: Five or more Por-embedding niosome solutions (A solutions) with different metalloporphyrin concentrations ranging from 0 to 1,000 μM were prepared. […] The UV-vis was also measured for a solution without addition of Por-embedding niosome (blank) in the same manner.
The ferrocytochrome c formation rates in a solution not containing Por-embedding niosome (vo) and a solution containing Por-embedding niosome (vi) were determined from the relationship between the time and the absorbance at 550 nm in the UV-vis measurement over time. The inhibition coefficient (IC) was calculated according to the following formula to determine the concentration of metalloporphyrin when IC=50% (IC50) from the relationship between the concentration of metalloporphyrin complex and IC. […] The SOD activity of MnT4MPyP and the like was evaluated in the same manner for reference. […]

[3] = value disclosed by Fridovich et al., J. Biol. Chem., 273, 24251 (1998); read-out: IC50 (SOD activity); cited from earlier work
[4] = value disclosed by Ohse, Kawakami et al., J. Inorg. Biochem., 85, 201 (2001); cited from earlier work

manganese[5,10,15,20-tetrakis(2-methylpyridyl)porphyrin] [MnT2MPyP]
kcat (rate constant of the O2−. extinction reaction) [1]: 2.1e+07 M⁻¹ s⁻¹ | pIC50 [2]: 6.74

C[n+]1ccc(-c2c3nc(c(-c4cc[n+](C)cc4)c4ccc([n-]4)c(-c4cc[n+](C)cc4)c4nc(c(-c5cc[n+](C)cc5)c5ccc2[n-]5)C=C4)C=C3)cc1.[Mn+2] [MnT4MPyP, Manganese[5,10,15,20-tetrakis(4-methylpyridyl)porphyrin]]
kcat (rate constant of the O2−. extinction reaction) [1]: 1.4e+07 M⁻¹ s⁻¹ | pIC50 [3]: 6.15 | kcat (rate constant of the O2−. extinction reaction) [4]: 2.2e+07 M⁻¹ s⁻¹ | pIC50 [2]: 6.37

Source: US20080269184A1, “Niosome Having Metal Porphyrin Complex Embedded Therein, Process For Producing The Same And Drug With The Use Thereof” (priority 2004, published 2008)
